Source: US7741337B2, “Azonafide derivatives, methods for their production and pharmaceutical compositions therefrom” (Unibioscreen S.A., priority 2005, dated 2010)
Structures can show the parent of a compound that is named as a salt. Where two headings read alike, the source gives them in different places.

Legend:
[1] = test system: U-373 MG (Glioma cancer) cells; assay: Effect on cell migration, U-373MG; type: cell-based; conditions: Homo sapiens, U373 MG, p value in same cell, read-out: Maximum effects (cell migration); for Emax at 1 µM: at 10^−6 M; for Emax at 0.1 µM: at 10^−7 M
Description: (§1) Cells of different cancer lines, i.e. U-373 MG (Glioma cancer), PC3 (prostate cancer and A549 (Lung cancer) were seeded on culture flask 48 hours before the migration experiment. On the test day, cells were treated with or without the azonafide derivatives mentioned in table 3 in closed Falcon dishes containing a buffered medium at a controlled temperature (37.0±0.1° C.) for 12 or 22 hours, as noted in the right column of table 3. The azonafide derivatives were used at three non-cytotoxic concentrations (10^−6 M, 10^−7, 10^−8 M). Migration of the cells was observed by means of a CCD-camera mounted on a phase-contrast microscope. Statistical analysis of the migration, with the non-parametric Mann-Whitney test, was established for 25% and 50% of the most motile cells and for the entire cell population.

[2] = test system: human cancer cell lines Hs683, U-373MG, HCT-15, LoVo, A549 and MCF-7; assay: MTT test, effect on overall cell growth (mean of six cell lines, examples 3 to 26); type: cell-based; conditions: mean of six cell lines Hs683, U-373MG, A549, MCF-7, 72 hours incubation, range of molar concentrations resulting in 50% inhibition of overall tumor cells growth
Description: (§2) MTT tests were performed in order to rapidly, i.e. within 5 days, measure the effect of azonafide derivatives of this invention on the overall cell growth. The test measures the number of metabolically active living cells that are able to transform the yellow product 3-(4,5-dimethylthiazol-2-yl)-2,5-diphenyl tetrazolium bromide (herein referred as MTT) into the blue product formazan dye by mitochondrial reduction. The amount of formazan obtained at the end of the experiment, measured by means of a spectrophotometer, is directly proportional to the number of living cells. Optical density determination thus enables a quantitative measurement of the effect of the investigated compounds as compared to the control condition (untreated cells) and/or to other reference compounds.
(§3) Height human cancer cell lines described in table 1 were used in the following MTT tests. These cell lines cover six histological cancer types, being prostate, glioma, pancreas, colon, lung and breast cancers. Cells were allowed to grow in 96-well micro-wells with a flat bottom with an amount of 100 μl of cell suspension per well with 1,000 to 4,000 cells/well depending on the cell type used. Each cell line was seeded in a well known MEM 5% serum culture medium.
(§4) The detailed experimental procedure was as following: after a 24-hour period of incubation at 37° C., the culture medium was replaced by 100 μl of fresh medium in which the compound to be tested was dissolved at the following molar concentrations: 10^−9 M, 5.10^−9 M, 10^−8 M, 5.10^−8 M, 10^−7 M, 5.10^−7 M, 10^−6 M, 5.10^−6 M and 10^−5 M. Each experiment was repeated 6 times.
(§5) After 72 hours of incubation at 37° C. with (experimental conditions) or without (control condition) the compound to be tested, the medium was replaced by 100 μl MTT dissolved in RPMI at a concentration of 1 mg/ml. The micro-wells were subsequently incubated during 3 hours at 37° C. and centrifuged at 400 g during 10 minutes. MTT was removed and formazan crystals formed were dissolved in 100 μl DMSO. The micro-wells were shaken for 5 minutes and read on a spectrophotometer at wavelengths of 570 nm (maximum formazan absorbance) and 630 nm (back-ground noise).
(§6) For each experimental condition, the mean optical density was calculated, as well as the percentage of remaining living cells in comparison with the control.
(§7) IC50 values for compounds of examples 3 to 26 were obtained on cell lines Hs683, U-373MG, HCT-15, LoVo, A549 and MCF-7 described in Table 1. IC50 values for compounds from examples 27 to 45 were obtained on cell lines PC3, U-373MG, BxPC3, LoVo, A549 and MCF-7 described in Table 1.

[3] = test system: PC3 (prostate cancer) cells; assay: Effect on cell migration, PC3; type: cell-based; conditions: Homo sapiens, 22 hours on the 25% of most motile cells, p value in same cell, read-out: Maximum effects (cell migration); for Emax at 0.01 µM: at 10^−8 M; for Emax at 1 µM: at 10^−6 M
Description: as §1

[4] = test system: U-373 MG, PC-3 and/or A549 cancer cells; assay: Effect on cell migration, summary of table 3; type: cell-based, human; conditions: for migration level of cancer cells: U-373 MG, PC-3 and/or A549 cancer cells at the non-cytotoxic concentrations of this study; for cell migration activity compared with the closest compounds known in the art: comparison drawn from table 3
Description: as §1

A549 (Lung cancer) cells = assay: Effect on cell migration, A549; type: cell-based; conditions: Homo sapiens, p value in same cell, read-out: Maximum effects (cell migration); for Emax at 1 µM: at 10^−6 M; for Emax at 0.1 µM: at 10^−7 M
Description: as §1

[5] = test system: human cancer cell lines PC3, U-373MG, BxPC3, LoVo, A549 and MCF-7; assay: MTT test, effect on overall cell growth (mean of six cell lines, examples 27 to 45); type: cell-based; conditions: mean of six cell lines PC3, U-373MG, A549, MCF-7, 72 hours incubation, range of molar concentrations resulting in 50% inhibition of overall tumor cells growth
Description: as §2, §3, §4, §5, §6, §7

[6] = 22 hours on the 25% of most motile cells

IC50 [2] [µM] | Compound | Emax at 1 µM [1, 6] [%] | migration level of cancer cells [4] | cell migration activity compared with the closest compounds known in the art [4] | other results
5 to 10 | CN(C)CCN1C(=O)c2cccc3cc4cccc(N)c4c(c23)C1=O [Example 3, 11-amino-2-[2-(dimethylamino)ethyl]-1H-dibenzo[de,h]isoquinoline-1,3(2H)-dione, reference compound] | -31 | – | – | –
5 to 10 | COC(=O)Nc1cccc2cc3cccc4c3c(c12)C(=O)N(CCN(C)C)C4=O [Example 9, methyl {2-[2-(dimethylamino)ethyl]-1,3-dioxo-2,3-dihydro-1H-dibenzo[de,h]isoquinolin-11-yl}carbamate] | – | induced a decrease in the migration level | significantly greater cell migration activity than the closest compounds known in the art, or similar cell migration activity at significantly lower concentrations | Emax at 0.1 µM ([1]; 12 and 22 hours on the 25% of most motile cells): -31%; Emax at 1 µM (A549 (Lung cancer) cells; 12 hours on the 25% of most motile cells): -40%; Emax at 1 µM (A549 (Lung cancer) cells; [6]): -28%
5 to 10 | CN(C)CCN1C(=O)c2cccc3cc4cccc(NC(=O)Nc5ccc6c(c5)OCO6)c4c(c23)C1=O [Example 12, 1-(1,3-benzodioxol-5-yl)-3-{2-[2-(dimethylamino)ethyl]-1,3-dioxo-2,3-dihydro-1H-dibenzo[de,h]isoquinolin-11-yl}urea] | – | induced a decrease in the migration level | – | Emax at 0.1 µM [1, 6]: -20%
> 10 | CN(C)CCN1C(=O)c2cccc3cc4c(NC(=O)Nc5ccc6c(c5)OCO6)cccc4c(c23)C1=O [Example 14, 1-(1,3-benzodioxol-5-yl)-3-{2-[2-(dimethylamino)ethyl]-1,3-dioxo-2,3-dihydro-1H-dibenzo[de,h]isoquinolin-8-yl}urea] | – | induced a decrease in the migration level | – | Emax at 1 µM (A549 (Lung cancer) cells; [6]): -24%
– | CN(C)CCN1C(=O)c2cccc3cc4c(NC(=O)Nc5ccc6c(c5)OCO6)cccc4c(c23)C1=O [Example 15, 1-(1,3-benzodioxol-5-yl)-3-{2-[2-(dimethylamino)ethyl]-1,3-dioxo-2,3-dihydro-1H-dibenzo[de,h]isoquinolin-8-yl}urea hydrochloride] | -51 | – | significantly greater cell migration activity than the closest compounds known in the art, or similar cell migration activity at significantly lower concentrations | –
> 10 | CCOC(=O)Nc1cccc2cc3cccc4c3c(c12)C(=O)N(CCN(C)C)C4=O [Example 17, ethyl {2-[2-(dimethylamino)ethyl]-1,3-dioxo-2,3-dihydro-1H-dibenzo[de,h]isoquinolin-11-yl}carbamate] | – | induced a decrease in the migration level | significantly greater cell migration activity than the closest compounds known in the art, or similar cell migration activity at significantly lower concentrations | Emax at 0.1 µM [1, 6]: -42%; Emax at 0.1 µM (A549 (Lung cancer) cells; [6]): -44%
– | CC(C)COC(=O)Nc1cccc2cc3cccc4c3c(c12)C(=O)N(CCN(C)C)C4=O [Example 27, isobutyl {2-[2-(dimethylamino)ethyl]-1,3-dioxo-2,3-dihydro-1H-dibenzo[de,h]isoquinolin-11-yl}carbamate] | – | induced a decrease in the migration level | – | IC50 [5]: > 10 µM; Emax at 1 µM (A549 (Lung cancer) cells; [6]): -28%
– | CCCCOC(=O)Nc1cccc2cc3cccc4c3c(c12)C(=O)N(CCN(C)C)C4=O [Example 29, n-butyl {2-[2-(dimethylamino)ethyl]-1,3-dioxo-2,3-dihydro-1H-dibenzo[de,h]isoquinolin-11-yl}carbamate] | – | induced a decrease in the migration level | significantly greater cell migration activity than the closest compounds known in the art, or similar cell migration activity at significantly lower concentrations | Emax at 1 µM [3]: -22%; IC50 [5]: > 10 µM; Emax at 0.1 µM (A549 (Lung cancer) cells; [6]): -33%

Compound | IC50 [2] [µM] | Emax at 1 µM [1, 6] [%] | migration level of cancer cells [4] | cell migration activity compared with the closest compounds known in the art [4] | other results
CN(C)CCN1C(=O)c2cccc3cc4c(/N=C/c5ccc6c(c5)OCO6)cccc4c(c23)C1=O [Example 8, 8-{[(1E)-1,3-benzodioxol-5-ylmethylidene]amino}-2-[2-(dimethylamino)ethyl]-1H-dibenzo[de,h]isoquinoline-1,3(2H)-dione] | 1 to 5 | -30 | induced a decrease in the migration level | significantly greater cell migration activity than the closest compounds known in the art, or similar cell migration activity at significantly lower concentrations | Emax at 0.01 µM [3]: -29%
CN(C)CCN1C(=O)c2cccc3cc4cccc(NC(=O)Cc5ccc(Cl)cc5)c4c(c23)C1=O [Example 11, 2-(4-chlorophenyl)-N-{2-[2-(dimethylamino)ethyl]-1,3-dioxo-2,3-dihydro-1H-dibenzo[de,h]isoquinolin-11-yl}acetamide] | > 10 | -18 | induced a decrease in the migration level | significantly greater cell migration activity than the closest compounds known in the art, or similar cell migration activity at significantly lower concentrations | Emax at 1 µM [3]: -37%; Emax at 0.1 µM ([3]; at 10^−7 M): -27%
CN(C)CCN1C(=O)c2cccc3cc4cccc(NC(=O)Oc5ccc(F)cc5)c4c(c23)C1=O [Example 24, 4-fluorophenyl {2-[2-(dimethylamino)ethyl]-1,3-dioxo-2,3-dihydro-1H-dibenzo[de,h]isoquinolin-11-yl}carbamate] | > 10 | – | induced a decrease in the migration level | significantly greater cell migration activity than the closest compounds known in the art, or similar cell migration activity at significantly lower concentrations | Emax at 0.01 µM (A549 (Lung cancer) cells; 22 hours on the 25% of most motile cells, at 10^−8 M): -31%
CCCCCCCCOC(=O)Nc1cccc2cc3cccc4c3c(c12)C(=O)N(CCN(C)C)C4=O [Example 25, octyl {2-[2-(dimethylamino)ethyl]-1,3-dioxo-2,3-dihydro-1H-dibenzo[de,h]isoquinolin-11-yl}carbamate] | 5 to 10 | – | induced a decrease in the migration level | – | Emax at 0.01 µM [3]: -21%; Emax at 0.1 µM (A549 (Lung cancer) cells; [6]): -28%
